Data on 8 molecules can be found in patent US8399206B2, “Methods for diagnosis, prognosis and methods of treatment” (Nodality, Inc., priority 2008, dated 2013).

Test [1] concerns AML blasts. Description: SCNP / phospho-flow modulated signaling assay, AML study No. 1 (PBMC at diagnosis, CR vs NR). In kind it is cell-based, human. The source says: The present illustrative example represents how to analyze cells in one embodiment of the present invention. There are several steps in the process, such as the stimulation step, the staining step and the flow cytometry step. The stimulation step of the phospho-flow procedure can start with vials of frozen cells and end with cells fixed and permeabilized in methanol. Then the cells can be stained with an antibody directed to a particular protein of interest and then analyzed using a flow cytometer.
Frozen cells are thawed in a 37° C. water bath and gently resuspended in the vial and transferred to the 15 mL conical tube. The 15 mL tube is centrifuged at 930 RPM (200×g) for 8 minutes at room temperature. The supernatant is aspirated and the pellet is gently resuspended in 1 mL media A. The cell suspension is filtered through a 70 um cell strainer into a new 15 mL tube. The cell strainer is rinsed with 1 mL media A and another 12 ml of media A into the 15 mL tube. The cells are mixed into an even suspension. A 20 μL aliquot is immediately removed into a 96-well plate containing 180 μL PBS+4% FBS+CD45 Alexa 700+PI to determine cell count and viability post spin. After the determination, the 15 mL tubes are centrifuged at 930 RPM (200×g) for 8 minutes at room temperature. The supernatant is aspirated and the cell pellet is gently resuspended in 4 mL PBS+4 μL Amine Aqua and incubated for 15 min in a 37° C. incubator. 10 mL RPMI+1% FBS is added to the cell suspension and the tube is inverted to mix the cells. The 15 mL tubes are centrifuged at 930 RPM (200×g) for 8 minutes at room temperature. The cells are resuspended in Media A at the desired cell concentration (1.25×10^6/mL). For samples with low numbers of cells (<18.5×10^6), the cells are resuspended in up to 15 mL media. For samples with high numbers of cells (>18.5×10^6), the volume is raised to 10 mL with media A and the desired volume is transferred to a new 15 mL tube, and the cell concentration is adjusted to 1.25×10^6 cells/ml. 1.6 mL of the above cell suspension (concentration at 1.25×10^6 cells/ml) is transferred into wells of a multi-well plate. From this plate, 80 ul is dispensed into each well of a subsequent plate. The plates are covered with a lid (Nunc) and placed in a 37° C. incubator for 2 hours to rest.
A concentration for each stimulant that is five folds more (5×) than the final concentration is prepared using Media A as diluent. 5× stimuli are arrayed into wells of a standard 96 well v-bottom plate that correspond to the wells on the plate with cells to be stimulated.
Adding the stimulant: The cell plate(s) are taken out of the incubator and placed in a 37° C. water bath next to the pipette apparatus. The cell plate is taken from the water bath and gently swirled to resuspend any settled cells. With pipettor, the stimulant is dispensed into the cell plate and vortexed at “7” for 5 seconds. The deep well plate is put back into the water bath.
Adding Fixative: 200 μl of the fixative solution (final concentration at 1.6%) is dispensed into wells and then mixed on the titer plate shaker on high for 5 seconds. The plate is covered with foil sealer and incubated in a 37° C. water bath for 10 minutes. The plate is spun for 6 minutes at 2000 rpm at room temperature. The cells are aspirated using a 96 well plate aspirator (VP Scientific). The plate is vortexed to resuspend cell pellets in the residual volume. The pellet is ensured to be dispersed before the Methanol step (see cell permeabilization) or clumping will occur.
Cell Permeabilization: Permeability agent, for example methanol, is added slowly and while the plate is vortexing. To do this, the cell plate is placed on titer plate shaker and made sure it is secure. The plate is set to shake using the highest setting. A pipetter is used to add 0.6 mls of 100% methanol to the plate wells. The plate(s) are put on ice until this step has been completed for all plates.

Test [2] relates to AML BMMC leukemic blasts. Description: SCNP modulated signaling assay, AML study No. 2 (BMMC, CR vs NR, clinical sub-groups). The format is cell-based, human. The method, then: Two independent sets of cryopreserved samples were analyzed sequentially. The first set consisted of 35 peripheral blood mononuclear cell (PBMC) samples derived from AML patients. The second set consisted of 134 cryopreserved bone marrow mononuclear cell (BMMC) samples derived from AML patients. These samples were the same samples used in the previous examples. Sample inclusion criteria required collection prior to initiation of induction chemotherapy, AML classification by the French-American-British (FAB) criteria as M0 through M7 (excluding M3) and availability of clinical annotations.
In the first study, induction chemotherapy consisted of at least one cycle of standard cytarabine-based induction therapy (i.e. daunorubicin 60 mg/m^2×3 days, cytarabine 100-200 mg/m^2 continuous infusion×7 days); responses were measured after one cycle of induction therapy. In the second study, cytarabine (200 mg/m^2 to 3 g/m^2) was used in combination with an anthracycline (daunorubicin or idarubicin) or an additional anti-metabolite (e.g. fludarabine or troxacitabine), and sometimes, an experimental agent (Table 16). […] Standard clinical and laboratory criteria were used for defining complete response (CR) in both studies. […] Classified as “CRp,” these samples were included in the CR group for all primary analysis. The univariate analyses were also repeated with the CRp patients classified into the NR sample group for sensitivity analysis.
Cyropreserved samples were thawed at […], washed and centrifuged in PBS, 10% FBS and 2 mM EDTA. The cells were re-suspended, filtered to remove debris and washed in RPMI cell culture media, 1% FBS, then stained with Live/Dead Fixable Aqua Viability Dye to distinguish non-viable cells. The cells were then re-suspended in RPMI, 1% FBS, aliquoted to 100,000 cells/condition and rested for 1-2 hours at 37° C. prior to SCNP assays. Each condition included two to five phenotypic markers for cell population gating (eg, CD45, CD33), up to three intracellular stains or up to three additional surface markers or control antibodies for an eight-color flow cytometry assay.
Functional assays were performed as previously described. Cells were incubated with modulators (Table 18), at 37° C. for 3-15 minutes, fixed with 1.6% paraformaldehyde (final concentration) for 10 minutes at 37° C., pelleted and permeabilized with 100% ice-cold methanol and stored at −80° C.
Data was acquired using FACS DIVA software on both LSR II and CANTO II Flow Cytometers (BD). For all analyses, dead cells and debris were excluded by forward scatter (FSC), side scatter (SSC), and Amine Aqua Viability Dye measurement. Leukemic cells were identified as cells that lacked the characteristics of mature lymphocytes (CD45^++, CD33^−) and that fit the CD45 and CD33 versus right-angle light-scatter characteristics consistent with myeloid leukemia cells.
The median fluorescence intensity (MFI) was computed for each node from the fluorescence intensity levels for the cells in the myeloid population. The MFI values were then used to compute a variety of metrics by comparing them to baseline or background values, including the unmodulated condition, cellular autofluorescence and antibody isotype controls. The following metrics were computed: • 1. Basal MFI (“Basal”)=log2(MFIUnmodulated Stained)−log2(MFIGated Unstained (Autofluoresence)), designed to measure the basal levels of a certain protein under unmodulated conditions. • 2.

[3] abbreviates: Study No. 1 sensitivity analysis, CR samples.
Where [4] appears, read: Study No. 1 sensitivity analysis, NR samples incl. CRp.
Where [5] appears, read: Study No. 2, all patients, CR samples.
Where [6] appears, read: Study No. 2, all patients, CR samples, negative = down regulation.
Setting [7] is: Study No. 2, all patients, NR samples.

In the case of “GM-CSF: granulocyte macrophage stimulating factor”, the “increase in p-Akt and p-S6 levels” value in test [1] (Staurosporine Resistant category vs other apoptosis categories) is “greatest increase in p-Akt and p-S6 levels”. Moreover, the “Mean Value of CRs, p-Stat3 Total Phospho” value in test [1] (setting [3]) is 0.83. The “Mean Value of NRs, p-Stat3 Total Phospho” value in test [1] (setting [4]) was determined as 1.23. Besides, in test [1] (all samples of the Staurosporine Resistant apoptosis category), the “Jak/Stat response (G-CSF: p-Stat3, p-Stat5; GM-CSF: p-Stat5)” value is on record as “Robust Jak/Stat responses”.

With IL-6: interleukin 6, cytokine modulator, in test [1] (setting [3]), the “Mean Value of CRs, p-CREB Total Phospho” value is 1.58 and the “Mean Value of CRs, p-Stat3 Total Phospho” value came out at 1.08. Also, in test [1] (setting [4]), the “Mean Value of NRs, p-CREB Total Phospho” value is given as 2.44 and the “Mean Value of NRs, p-Stat3 Total Phospho” value amounted to 1.81. In test [2] (setting [5]), the “Mean Value of CRs, p-Stat3 Total Phospho” value amounted to 1.76 and the “Mean Value of CRs, p-Stat5 Fold” value was determined as 0.13. In test [2] (setting [6]), the “Mean Value of CRs, p-Stat1 Fold” value is on record as −0.01 and the “Mean Value of CRs, p-Stat3 Fold” value is 0.12. Also, in test [2] (setting [7]), the “Mean Value of NRs, p-Stat1 Fold” value was found to be 0.26; the “Mean Value of NRs, p-Stat3 Fold” value is 1.09; the “Mean Value of NRs, p-Stat3 Total Phospho” value was found to be 2.98; the “Mean Value of NRs, p-Stat5 Fold” value was 0.55.

For the molecule IGF-1, in test [1] (setting [3]), the “Mean Value of CRs, p-Plcγ2 Total Phospho” value came out at 1.82. In test [1] (Study No. 1 sensitivity analysis, CR samples, Alexa488 conjugate), the “Mean Value of CRs, p-CREB Alexa488 Total Phospho” value was 1.11. In addition, the “Mean Value of CRs, p-CREB PE Total Phospho” value in test [1] (Study No. 1 sensitivity analysis, CR samples, PE conjugate) was 1.42. Besides, in test [1] (setting [4]), the “Mean Value of NRs, p-Plcγ2 Total Phospho” value is recorded as 2.76. In test [1] (Study No. 1 sensitivity analysis, NR samples incl. CRp, Alexa488 conjugate), the “Mean Value of NRs, p-CREB Alexa488 Total Phospho” value was 1.62. Also, the “Mean Value of NRs, p-CREB PE Total Phospho” value in test [1] (Study No. 1 sensitivity analysis, NR samples incl. CRp, PE conjugate) is listed as 2.29.

Consider “IL-10: interleukin 10, cytokine modulator”, for which, in test [1] (setting [3]), the “Mean Value of CRs, p-Stat1 Total Phospho” value is recorded as 0.17 and the “Mean Value of CRs, p-Stat3 Total Phospho” value came out at 0.72. In test [1] (setting [4]), the “Mean Value of NRs, p-Stat1 Total Phospho” value came out at 0.47 and the “Mean Value of NRs, p-Stat3 Total Phospho” value was 1.69. The “Mean Value of CRs, p-Stat5 Fold” value in test [2] (setting [5]) came out at 0.09. The “Mean Value of CRs, p-Stat3 Fold” value in test [2] (setting [6]) was 0.08. Also, the “Mean Value of NRs, p-Stat3 Fold” value in test [2] (setting [7]) is listed as 0.39. Further, the “Mean Value of CRs, p-Stat5 Fold” value in test [2] (Study No. 2, patients with de novo AML, CR samples) came out at 0.06.

For the molecule `CCCCCCCCCCCCCC(=O)O[C@@H]1[C@@H](C)[C@@]2(O)[C@@H](C=C(CO)C[C@]3(O)C(=O)C(C)=C[C@@H]23)[C@@H]2C(C)(C)[C@]12OC(C)=O` [PMA, reference compound], in test [2] (setting [5]), the “Mean Value of CRs, p-Erk Fold” value amounted to 2.82. The “Mean Value of CRs, p-CREB Total Phospho” value in test [2] (Study No. 2, patients less than 60 years old, CR samples) is listed as 3.72. For the same molecule, the “Mean Value of NRs, p-CREB Total Phospho” value in test [2] (Study No. 2, patients less than 60 years old, NR samples) is listed as 5.00.

With EPO, in test [1] (setting [3]), the “Mean Value of CRs, p-Stat1 Total Phospho” value was 0.17 and the “Mean Value of CRs, p-Stat3 Total Phospho” value stood at 0.64. In addition, in test [1] (setting [4]), the “Mean Value of NRs, p-Stat1 Total Phospho” value is listed as 0.42 and the “Mean Value of NRs, p-Stat3 Total Phospho” value is listed as 1.23.

B1: M-CSF (protein, UniProt P09603 33-554, looked up)
Macrophage colony-stimulating …: EEVSEYCSHMIGSGHLQSLQRLIDSQMETSCQITFEFVDQEQLKDPVCYLKKAFLLVQDIMEDTMRFRDNTPNAIAIVQLQELSLRLKSCFTKDYEEHDKACVRTFYETPLQLLEKVKNVFNETKNLLDKDWNIFSKNCNNSFAECSSQDVVTKPDCNCLYPKAIPSSDPASVSPHQPLAPSMAPVAGLTWEDSEGTEGSSLLPGEQPLHTVDPGSAKQRPPRSTCQSFEPPETPVVKDSTIGGSPQPRPSVGAFNPGMEDILDSAMGTNWVPEEASGEASEIPVPQGTELSPSRPGGGSMQTEPARPSNFLSASSPLPASAKGQQPADVTGTALPRVGPVRPTGQDWNHTPQKTDHPSALLRDPPEPGSPRISSLRPQGLSNPSTLSAQPQLSRSHSSGSVLPLGELEGRRSTRDRRSPAEPEGGPASEGAARPLPRFNSVPLTDTGHERQSEGSFSPQLQESVFHLLVPSVILVLLAVGGLLFYRWRRRSHQEPQRADSPLEQPEGSPLTQDDRQVELPV
Regarding B1, in test [1] (setting [3]), the “Mean Value of CRs, p-Akt Fold” value was −0.16; the “Mean Value of CRs, p-CREB Total Phospho” value stood at 1.26; the “Mean Value of CRs, p-Plcγ2 Total Phospho” value worked out at 1.79. Further, in test [1] (setting [4]), the “Mean Value of NRs, p-Akt Fold” value is 0.05; the “Mean Value of NRs, p-CREB Total Phospho” value is 1.76; the “Mean Value of NRs, p-Plcγ2 Total Phospho” value worked out at 2.8.

B2: CD40L (protein, UniProt P29965 113-261, looked up)
CD40 ligand, soluble form: MQKGDQNPQIAAHVISEASSKTTSVLQWAEKGYYTMSNNLVTLENGKQLTVKRQGLYYIYAQVTFCSNREASSQAPFIASLCLKSPGRFERILLRAANTHSSAKPCGQQSIHLGGVFELQPGASVFVNVTDPSQVSHGTGFTSFGLLKL
Turning to B2, in test [1] (setting [3]), the “Mean Value of CRs, p-CREB Total Phospho” value was found to be 1.37 and the “Mean Value of CRs, p-Erk Total Phospho” value came out at 1.18. For the same molecule, in test [1] (setting [4]), the “Mean Value of NRs, p-CREB Total Phospho” value was found to be 2.67 and the “Mean Value of NRs, p-Erk Total Phospho” value is on record as 1.62.
